ChEMBL document CHEMBL3425506, “Synthesis, antimycobacterial evaluation and pharmacophore modeling of analogues of the natural product formononetin” (2015)

Test system: Mycobacterium tuberculosis
Test: Antimycobacterial activity against Mycobacterium tuberculosis H37Rv ATCC 27294 assessed as inhibition of microbial growth at 10 uM after 5 to 8 days by MABA method
Assay type: functional
Conditions: read-out: GI

SMILES: N#Cc1ccc(-c2coc3cc(O)ccc3c2=O)cc1
- inhibition of growth at 10 µM: 16%

SMILES: CC(C)(C)c1ccc(-c2coc3cc(O)ccc3c2=O)cc1
- inhibition of growth at 10 µM: 95%

SMILES: COc1ccc(-c2coc3ccc(OC)cc3c2=O)cc1
- inhibition of growth at 10 µM: 0%

SMILES: COc1ccc(-c2cnoc2-c2ccc(O)cc2O)cc1
- inhibition of growth at 10 µM: 15%

SMILES: COc1ccc(-c2coc3ccccc3c2=O)cc1
- inhibition of growth at 10 µM: 0%

SMILES: COc1ccc(/C=C/C(=O)c2ccc(O)cc2O)cc1
- inhibition of growth at 10 µM: 58%

SMILES: COc1ccc(-c2coc3ccc(Cl)cc3c2=O)cc1
- inhibition of growth at 10 µM: 0%

SMILES: O=c1c(-c2ccccc2)coc2ccccc12 [ISOFLAVONE]
- inhibition of growth at 10 µM: 0%

SMILES: COc1ccc(-c2coc3cc(F)ccc3c2=O)cc1
- inhibition of growth at 10 µM: 0%

SMILES: COc1ccc(-c2coc3ccc(O)cc3c2=O)cc1
- inhibition of growth at 10 µM: 28%

SMILES: COc1ccc(-c2coc3cc(O)ccc3c2=O)cn1
- inhibition of growth at 10 µM: 0%

SMILES: COc1ccc(-c2coc3cc(O)ccc3c2=S)cc1
- inhibition of growth at 10 µM: 4%

SMILES: COc1ccc(-c2coc3cc(O)ccc3c2=O)cc1F
- inhibition of growth at 10 µM: 13%

SMILES: COc1ccc(-c2c[nH]nc2-c2ccc(O)cc2O)cc1
- inhibition of growth at 10 µM: 40%

SMILES: COc1ccc(-c2coc3cc(O)ccc3c2=O)cc1OC [CLADRIN]
- inhibition of growth at 10 µM: 14%

SMILES: COc1ccc(-c2coc3ccc(Br)cc3c2=O)cc1
- inhibition of growth at 10 µM: 5%

SMILES: COc1ccc(-c2coc3cc(O)ccc3c2=O)cc1 [FORMONONETIN]
- inhibition of growth at 10 µM: 88%

SMILES: O=c1c(-c2ccc(Cl)cc2)coc2cc(O)ccc12
- inhibition of growth at 10 µM: 54%

SMILES: COc1ccc(-c2coc3ccc(C)cc3c2=O)cc1
- inhibition of growth at 10 µM: 7%

SMILES: COc1ccc(-c2coc3ccc(F)cc3c2=O)cc1
- inhibition of growth at 10 µM: 0%

SMILES: COc1ccc(-c2coc3cc(F)ccc3c2=O)cn1
- inhibition of growth at 10 µM: 2%
